Values of other authors in publication PMC8451327, “Paradoxical Augmentation of Experimental Spondyloarthritis by RORC Inhibition in HLA-B27 Transgenic Rats” (Frontiers in Immunology, 2021).

Columns and labels:
[1] = test system: ankylosing spondylitis (AS)
[2] = test system: psoriatic arthritis (PsA)
intestinal inflammation = test system: intestinal inflammation; design: method as in PMID 30972425
normal mice = test system: normal mice; design: method as in PMID 30972425

## Secukinumab: anti-IL-17A mAb
[1]
  Signs and symptoms of ankylosing spondylitis: reduced
[2]
  Signs and symptoms of psoriatic arthritis: reduced

## COc1ccc2c(n1)CCN(C(=O)C1CC(CC(=O)O)C1)[C@H]2C(=O)Nc1cc(F)c2c(c1)CCC2(C)C (some centres unmarked) [TAK-828F]
Intestinal inflammation
  Gene expression of IL17A, IL17F and IL-22: suppressed/decreased
  Intestinal inflammation: suppressed
  Th17 and Th17/Th1 cell population in mesenteric lymph nodes: significantly reduced
Normal mice
  Numbers of Th17 cells and ILC3s in the lamina propria: did reduce

## ixekizumab: interleukin-17A specific monoclonal antibody
[1]
  Clinical efficacy in AS: proven clinical efficacy
[2]
  Clinical efficacy in PsA: proven clinical efficacy
